Experimental data reported in patent publication US20050220726A1, “Use of sugar esters in cosmetic and/or pharmaceutical preparations” (priority 2003, published 2005).

Key:
Assay type in all cases: cell-based
[1] = test system: melanocytes (B16 cell line); assay: Inhibition of melanin synthesis in B16 melanocytes; details: 3 days, blank value = 100
Protocol: Melanin is the pigment responsible for the color of the skin and hair. It is formed in special organelles, the melanosomes, which occur in the melanocytes of the basal layer of the human epidermis. The biosynthesis of melanin begins with the amino acid tyrosine which is oxidized to DOPA (dihydroxyphenylalanine) in the presence of tyrosinase. The DOPA then polymerizes to melanin. […] After incubation for 3 days at 37° C./5% CO2, the nutrient medium was replaced by a solution containing the test substances in various concentrations. After incubation for another 3 days, the cell protein content (Bradford's method) and the content of synthesized melanin were determined through the optical density of the homogenizate at 475 nm. The results are expressed in % against a blank value and are set out in Table 7.

Propionibacterium acnes = assay: Agar diffusion method, inhibition zones; details: filter paper with 20 μl test substance; 18 to 24 h at 37° C., anaerobic
Protocol: (§1) The antibacterial activity of the test substances was tested by the diffusion method on agar plates or the agar dilution method. In this method, a round filter paper of defined diameter is first impregnated with the test solution and then applied to the surface of an agar plate inoculated beforehand with the test microorganisms. The size of the inhibition zones is then determined after defined times. In particular, it is possible by this method to determine the MIC (Minimum Inhibitory Concentration) as the lowest concentration of test substance with which complete inhibition of the microorganisms can be obtained.
(§2) Agar diffusion method. The inoculum was prepared using a fresh culture in a stationary growth phase (after ca. 18-24 h) in a BHI solution (brain-heart Infusion). The bacterial suspension was adjusted to 0.5 MacFarland units, corresponding to 1.5 10^8 colony-forming units (cfu)/ml; the suspension was then diluted with a sodium chloride solution (1:100) to adjust a value of 1.5 10^6 cfu/ml. Mueller-Hinton agar (Staphylococcus epidermidis, Staphylococcus aureus) and Wilkins-Chalgrens agar containing 5% by weight sheep's blood (Propionibacterium acnes) were then sterilized for 15 mins. at 121° C. and then placed in Petri dishes. 2 to 4 ml of the bacterial suspension were then added to the Petri dishes, followed by drying at room temperature. The filter papers were impregnated with 20 μl of the test substances and applied to the surface of the agar plates. The inoculated Petri dishes were incubated for 18 to 24 h at 37° C. (the Petri dishes containing Propionibacterium acnes under anaerobic conditions) and the antimicrobial activity was then determined by determination of the growth inhibition zones. The results are set out in Table 10 and represent the diameters of the inhibition zones in mm.

Staphylococcus aureus = assay: Agar diffusion method, inhibition zones; details: filter paper with 20 μl test substance; 18 to 24 h at 37° C.
Protocol: as §1, §2

[2] = test system: Staphylococcus epidermidis; assay: Agar diffusion method, inhibition zones; details: filter paper with 20 μl test substance; 18 to 24 h at 37° C.
Protocol: as §1, §2

human hair follicles = assay: Inhibition of hair growth, in vitro cultivated hair follicles; details: conc. 0.01 % w/v
Protocol: The hair-growth-inhibiting effect of the sugar esters was determined by a method using in vitro cultivated human hair follicles in a growth medium. The growth of the hair follicles was tested in the presence and absence of fructose caprate. To this end, the hair follicles were incubated for 7 days at 37° C./5% CO2. The length of the cultivated hair follicles was recorded after 3 days and 7 days of cultivation. In a comparison example, the growth medium additionally contained 30 ng/ml IGF-1 insulin-like growth factor), a cytokine which stimulates hair follicle growth.
Each of the tests was carried out with 10 hair follicles of a donor (5 donors in all).
The results are set out in Table 9 and represent the mean values of the 50 hair follicles.

human keratinocytes = assay: Growth inhibition on human keratinocytes with EGF; details: with EGF 10 ng/ml, 3 days, control = 100, control with EGF = 167
Protocol: Increased proliferation and differentiation of keratinocytes of the hair matrix leads to improved longer hair growth. The following test was carried out to determine the potential of the sugar esters for inhibiting hair growth which is visibly reflected in a reduction in the proliferation of human keratinocyte culture in vitro.
To this end, human keratinocytes were cultivated in a standard cell culture medium containing foetal calf serum (FCS). After incubation for 1 day at 37° C./5% CO2, the growth medium was replaced by standard medium containing 10 ng/ml epidermal growth factor (EGF) and various concentrations of sugar esters dissolved in ethanol (1% by volume).
After incubation for three days, the number of living cells was determined by determining the cell protein content by the Bradford method [Bradford, M. M., A rapid and sensitive method for the quantitation of microgram quantities of protein utilizing the principle of protein-dye binding. Anal. Biochem. (1977), Vol. 72, pp. 248-254].
The results of Table 8 represent the values of triple determinations on two batches expressed in % against a control of cell culture medium without sugar ester.

[3] = test system: human leukaemic granulocytes; assay: Anti-inflammatory activity: respiratory burst of granulocytes (zymosan, luminol); details: + stimulation (zymosan), blank + stimulation = 100
From the text: In the course of cutaneous inflammation, leucocytes, such as the polymorphonuclear neutrophilic granulocytes (PMNs) for example, are stimulated by peptides, such as cytokines for example, to emit messenger substances, such as leucotriene for example, which are released from activated or necrotic cells in the dermis. These activated PMNs release not only pro-inflammatory cytokinins, leucotrienes and proteases, but also ROS, such as superoxides and hypochlorite anions for example, of which the function is to destroy penetrated pathogenic germs or fungi. This activity of the PMNs during the inflammation is known as so-called respiratory burst. To investigate to what extent the test extracts can prevent or reduce the respiratory burst, a cell line of human leukaemic granulocytes of these PMNs was incubated together with the test substances at 37° C. and 5% by vol. CO2. After the respiratory burst had been initiated by addition of a yeast extract (zymosan) to the cell solution, the release of superoxide anions was determined through their reaction with luminol.

Substance: Fructose caprate
- Cell melanin ([1]; conc. 0.003 % w/v): 54 %-rel.
- Cell proteins ([1]; conc. 0.003 % w/v): 108 %-rel.
- Cell melanin ([1]; conc. 0.006 % w/v): 30 %-rel.
- Cell proteins ([1]; conc. 0.006 % w/v): 80 %-rel.
- Inhibition zones, Propionibacterium acnes (Propionibacterium acnes): 14 mm
- Inhibition zones, Staphylococcus aureus (Staphylococcus aureus): 10 mm
- Inhibition zones, Staphylococcus epidermidis [2]: 9 mm
- Hair follicle growth, increase Day 3/day 0 (human hair follicles; + IGF (30 ng/ml IGF-1), control +21%): +15%
- Hair follicle growth, increase Day 7/day 0 (human hair follicles; + IGF (30 ng/ml IGF-1), control +45%): +25%
- Hair follicle growth, increase Day 3/day 0 (human hair follicles; without IGF, control +15%): +12%
- Hair follicle growth, increase Day 7/day 0 (human hair follicles; without IGF, control +32%): +21%
- Cell protein content in % (human keratinocytes; conc. 0.001 % w/v): 163%
- Cell protein content in % (human keratinocytes; conc. 0.003 % w/v): 130%
- Cell protein content in % (human keratinocytes; conc. 0.01 % w/v): 45%
- Cell counts ([3]; conc. 0.003 % w/v): 97 %-rel.
- ROS released ([3]; conc. 0.003 % w/v): 87 %-rel.
- Cell counts ([3]; conc. 0.01 % w/v): 60 %-rel.
- ROS released ([3]; conc. 0.01 % w/v): 5 %-rel.
